From patent publication US20230271980A1, “PREPARATION AND APPLICATION OF TRICYCLIC PYRIMIDINONE COMPOUND AND ITS COMPOSITION” (NEUSCO BIOTECH LIMITED, priority 2020, published 2023) come the findings set out here.

The target of assay [1] is T1, Recombinant human Lp-PLA2 (Homo sapiens, UniProt Q13093).
T1 sequence (Q13093 22-441): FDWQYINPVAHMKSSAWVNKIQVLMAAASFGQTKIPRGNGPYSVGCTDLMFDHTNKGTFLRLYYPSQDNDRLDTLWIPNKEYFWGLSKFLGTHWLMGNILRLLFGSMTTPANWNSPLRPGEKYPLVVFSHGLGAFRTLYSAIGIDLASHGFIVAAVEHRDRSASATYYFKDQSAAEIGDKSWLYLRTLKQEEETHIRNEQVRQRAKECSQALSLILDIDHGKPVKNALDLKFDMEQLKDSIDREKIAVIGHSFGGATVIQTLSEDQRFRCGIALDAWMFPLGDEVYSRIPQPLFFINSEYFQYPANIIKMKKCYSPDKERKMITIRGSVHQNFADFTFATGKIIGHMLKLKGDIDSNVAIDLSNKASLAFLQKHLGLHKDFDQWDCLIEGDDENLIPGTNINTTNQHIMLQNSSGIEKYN
Put plainly: Recombinant human Lp-PLA2 (rhLp-PLA2) assay (PED6 assay). In kind it is biochemical. The conditions noted are these: PED6 substrate; recombinant human Lp-PLA2 enzyme at 4 nM or 110 pM; 30 min pre-incubation; fluorescence ex 480/em 540; read-out: rhLp-PLA2 (pIC50) (converted). From the text:
(1) Recombinant Human Lp-PLA2 (rhLp-PLA2) Assay (Also Known as PED6 Assay)
PED6 is a fluorescently labeled phospholipid that can be purchased directly from Invitogene or Molecular Probes. There is a fluorescence-quenching p-nitrophenyl group on the Sn3 position, and a Bodipy fluorescein (FL) group on the sn2 position. Once it is cleaved by the Lp-PLA2 enzyme, the FL group is released, resulting in enhanced fluorescence.
Assay method: The compound to be tested (as shown in Table 1) was mixed with DMSO solution at a volume ratio of 1:3, diluted to prepare a source plate of a 384-well microplate. Then 0.01 μl of the compound was transferred via an ECHO liquid dispenser from the source plate to a 384-well Greiner 784076 plate, and 5 microliters of a buffer composed of 50 mM HEPES, pH7.4, 150 mM NaCl, 1 mM CHAPS (the buffer solution contains Recombinant human Lp-PLA2 enzyme at a concentration of 4 nM or 110 pM) was added to each well on the plate. The plate was centrifuged at 500 rpm for 10 seconds. After 30 minutes of pre-incubation, 5 microliters of the above buffer solution was added to a 384-well Greiner784076 plate, and the plate was centrifuged at 500 rpm for 10 seconds.

Assay [2] deals with T2, Lp-PLA2 enzyme in human plasma (Homo sapiens, UniProt Q13093).
T2 construct: from tissue; host or cells: pooled (mixed) human plasma
T2 sequence (Q13093 22-441): T1 sequence (Q13093 22-441)
Put plainly: Human plasma Lp-PLA2 assay (Thio-PAF assay). In kind it is biochemical. The conditions noted are these: mixed human plasma; 2-thio-PAF substrate with CPM; 30 min pre-incubation; fluorescence ex 380/em 485; read-out: Thio-PAF (pIC50) (converted). The procedure: (2) Human Plasma Lp-PLA2 Assay (Also Known as Thio-PAF Assay)
The human plasma assay was conducted using the sulphatide analog of PAF (phosphatidylcholine), which is hydrolyzed to produce phospholipids containing free sulfhydryl groups, subjected to Michael addition with CPM to generate fluorescence-enhancing maleimide.
Continuous quantitative analysis of thiol could be conducted by detecting the fluorescence intensity. This assay can be used to detect the inhibitory activity of the Lp-PLA2 inhibitor on the Lp-PLA2 enzyme in human plasma.
Assay Method: The compound to be tested (as shown in Table 2) was mixed with a DMSO solution in a volume ratio of (1:3), and diluted to prepare a source plate of a 384-well microplate. Then 0.01 μl of the compound was transferred via an ECHO liquid dispenser from the source plate to a 384-well Greiner 784076 low-volume plate, and 8 μl of pre-aliquoted and frozen mixed human plasma was added. The plate was centrifuged at 500 rpm for 10 seconds. After a 30 min pre-incubation, 2 μl of a substrate solution, and containing 2.5 mM 2-thio-PAF (a solution in ethanol), 32 μM CPM (a solution in DMSO) and a buffer of 3.2 mM N-ethylmaleimide (NEM) (a buffer solution consisting of 50 mM HEPES, pH7.4, 150 mM NaCl, 1 mM CHAPS) was added by a BRAVO liquid handling station to a 384-well Greiner 784076 low-volume plate. After 2 min, the reaction was quenched with 5 μl of 5% trifluoroacetic acid. After the plate was incubated at room temperature for 40 min in a dark place, the fluorescence intensity was read at ex 380/em 485 with an Envision microplate reader, and the XL fitting model in Excel was used to perform the curve analysis and QC analysis to calculate pIC50.

Molecules are shown by their SMILES.

Turning to `O=c1nc(OCc2cc(F)c(Oc3ccnc(C(F)(F)F)c3)c(F)c2)c2c3n1CCCN3CCO2` [Compound 15], the figures for the IC50 in assay [1] and in assay [2] were 0.0631 nM and 7.94 nM, respectively.

`O=c1nc(OCc2cc(F)c(Oc3ccnc(C(F)(F)F)c3)c(F)c2)c2c3n1CCN3CCO2` [Compound 4]: the IC50 is 0.126 nM in assay [1] and 12.6 nM in assay [2].

Take `O=c1nc(OCc2cc(F)c(Oc3ccc(C(F)(F)F)c(Cl)c3)c(F)c2)c2c3n1CCN3CCO2` [Compound 11]: the IC50 in assay [1] is 0.1 nM; in assay [2], 10 nM.

For `O=c1nc(OCc2cc(F)c(Oc3ccc(OC(F)(F)F)c(Cl)c3)c(F)c2)c2c3n1CCN3CCO2` [Compound 12], the IC50 in assay [1] was 0.0794 nM; in assay [2], 15.8 nM.

With `O=c1nc(OCc2cccc(F)c2F)c2c3n1CCCN3CCO2` [Compound 18], the IC50 was 10 nM in assay [1] and 126 nM in assay [2].

Consider `O=c1nc(OCc2cc(F)c(Oc3ccc(C(F)(F)F)cc3)c(F)c2)c2c3n1CCN3CCO2` [Compound 9], for which the IC50 is 0.158 nM in assay [1] and 10 nM in assay [2].

For the compound `O=c1nc(OCc2cc(F)c(F)c(F)c2)c2c3n1CCN3CCO2` [Compound 3], the IC50 in assay [1] is 3.16 nM; in assay [2] it was 50.1 nM.

Regarding `O=c1nc(OCc2cc(F)c(F)cc2F)c2c3n1CCN3CCO2` [Compound 1], the IC50 was 15.8 nM in assay [1] and 316 nM in assay [2].

Regarding `Cc1cc(Oc2c(F)cc(COc3nc(=O)n4c5c3OCCN5CC4)cc2F)ccc1Cl` [Compound 14], the IC50 in assay [1] was 0.2 nM; in assay [2] it was 15.8 nM.

As to `O=c1nc(OCc2cc(F)c(Oc3cccc(OC(F)(F)F)c3)c(F)c2)c2c3n1CCN3CCO2` [Compound 10], the IC50 in assay [1] was 0.2 nM; in assay [2] it was 15.8 nM.

Consider `O=c1nc(OCc2cc(F)c(Oc3ccc(Cl)c(C(F)(F)F)c3)c(F)c2)c2c3n1CCN3CCO2` [Compound 13], for which the IC50 in assay [1] is 0.158 nM; in assay [2] it was 12.6 nM.

For `Cc1ccc(Oc2c(F)cc(COc3nc(=O)n4c5c3OCCN5CC4)cc2F)cn1` [Compound 7], the values for the IC50 in assay [1] and in assay [2] were 0.251 nM and 20 nM, respectively.

As to `O=c1nc(OCc2cc(F)c(F)c(F)c2)c2c3n1CCCN3CCO2` [Compound 19], the IC50 in assay [1] was 3.98 nM; in assay [2], 63.1 nM.

On to `O=c1nc(OCc2cc(F)c(Oc3ccc(C(F)(F)F)nc3)c(F)c2)c2c3n1CCN3CCO2` [Compound 5], for which the IC50 is 0.2 nM in assay [1] and 20 nM in assay [2].

Consider `Cc1cc(Oc2c(F)cc(COc3nc(=O)n4c5c3OCCN5CC4)cc2F)ccn1` [Compound 6], for which the IC50 is 0.158 nM in assay [1] and 15.8 nM in assay [2].

`Cc1ccc(Oc2c(F)cc(COc3nc(=O)n4c5c3OCCN5CCC4)cc2F)cn1` [Compound 17]: the IC50 was 0.0501 nM in assay [1] and 7.94 nM in assay [2].

Consider `O=c1nc(OCc2cccc(F)c2F)c2c3n1CCN3CCO2` [Compound 2], for which the IC50 in assay [1] is 10 nM; in assay [2], 158 nM.

In the case of `Cc1ncc(Oc2c(F)cc(COc3nc(=O)n4c5c3OCCN5CC4)cc2F)cn1` [Compound 8], the IC50 in assay [1] is 1 nM; in assay [2], 39.8 nM.

Turning to `O=c1nc(OCc2cc(F)c(Oc3ccc(C(F)(F)F)nc3)c(F)c2)c2c3n1CCCN3CCO2` [Compound 16], the IC50 in assay [1] is 0.0794 nM; in assay [2] it was 10 nM.
